We go through 14 compounds from patent US11458132B2, “Quinolin-2(1H)-one inhibitors of Late SV40 Factor” (TRUSTEES OF BOSTON UNIVERSITY, priority 2020, dated 2022).

By fraction unbound is commonly meant the share of the substance not bound to proteins or other matrix. A lower fraction unbound goes with extensive binding. What is called GI50 is the concentration giving 50% growth inhibition. Low readings indicate greater sensitivity of the cells, high ones lower sensitivity of the cells.

Series [1] deals with RPE cells. Description: Cell spreading area and circularity by microscopy. To be noted: 4 μM FQI1 or 1 μM nocodazole, 1 hour. The series is classed as cell-based. Here is the method:
(§1) Cells were washed as before, treated with Phalloidin-iFluor 488 Reagent (abcam, ab176753) for 1 hour in 1-5% BSA in PBS, followed by Hoechst 33342 (Thermo Fisher Scientific, H3570) for 5 minutes. Mounting medium (Fisher Scientific, P10144) and cover slips were applied onto dried cells. Individually discernible cells were imaged on an Olympus Fluoview 10i. Using ImageJ, the phalloidin channel was thresholded and area and circularity values were measured and integrated into swarmplots using Python's seaborn library.

Series [2] relates to FH-B cells. Description: Cell spreading area / cell compaction by microscopy. The series is classed as cell-based, human. The following applies: 1 μM nocodazole, 30-60 minutes. The protocol:
as §1
For time lapse microscopy, FH-B cells in high μ-dishes were incubated with CellBrite™ Steady Membrane stain (Biotium, 30108-T) for 30-40 minutes in the environmental chamber of a Nikon C2 Si microscope at 37° C. and 5% CO2. Treatments were added to the cells through a syringe to reach final concentrations of 4 μM FQI1 or 0.01% DMSO. Immediately thereafter, a time-lapse series was acquired by imaging every 30 seconds for 30 minutes at 20× magnification.

Series [3] relates to RPE cells. Description: Microtubule sedimentation assay. The class given is cell-based. Here is the method:
(§2) Cell lysate preparation: For microtubule sedimentation assays, cells were treated as indicated in the figure legends, washed with PBS and incubated in 250 μl of microtubule sedimentation assay lysis buffer (100 mM PIPES pH 6.8, 2 M glycerol, 2 mM EGTA, 5 mM MgCl2, 0.1% Triton X-100) supplemented with 1 μM taxol, protease inhibitor cocktail (1:200, Abcam, ab201111) and phosphatase inhibitor cocktail (1:100, Abcam, ab201115) for 20 minutes at 37° C. Two hundred μl of scraped lysate was centrifuged at 21,000×g for 10 minutes at room temperature. Supernatants were saved as soluble fractions. Pellets were resuspended in 200 μl RIPA buffer (50 mM Tris HCl pH 8.0, 150 mM NaCl, 1% IGEPAL CA630, 0.05% deoxycholic acid) supplemented with 1.05% SDS, protease inhibitor cocktail (1:200) and phosphatase inhibitor cocktail (1:100) and incubated at 100° C. for 15 minutes. Pellet suspensions were centrifuged as before and supernatants were saved as pellet fractions.
(§3) Gel electrophoresis and immunoblotting: Microtubule sedimentation fractions and MLC2 analysis samples were separated by electrophoresis through tris-glycine and tricine polyacrylamide gels, respectively, which were transferred to PVDF membranes. Membranes with microtubule sedimentation fractions and MLC2 analysis samples were blocked in 5% milk in TBST and in 5% BSA in TBST, respectively. After overnight incubation with primary antibody at 4° C., the membranes were washed and incubated with secondary antibody for 1 hour at room temperature. Primary antibodies included anti-α-tubulin (1:2,000, Thermo Fisher Scientific, PA529444), anti-acetylated tubulin (1:1,000, Sigma-Aldrich, T7451), anti-phospho MYL9 (1:200, Thermo Fisher Scientific, PA517727), and anti-β-actin (1:5,000, Sigma-Aldrich, A1978). Secondary antibodies included Goat anti-Rabbit HRP (Thermo Fisher Scientific, 31460; 1:10,000 for anti-α-tubulin; 1:5,000 for anti-phospho MYL9), and Goat anti-Mouse HRP (Thermo Fisher Scientific, 62-6520; 1:5,000 for anti-acetylated tubulin; 1:10,000-1:20,000 for anti-β-actin). Membranes were placed into Pierce™ ECL Western Blotting Substrate (Thermo Fisher Scientific, 32106). Autoradiography film was exposed to each membrane for various times to ensure acquisition of non-saturated exposures. Band intensities were quantified from scanned films by densitometry using ImageJ.

In series [4] the test system is RPE cells. Description: Wound healing assay. The class given is cell-based. The following applies: 4 μM FQI1 or 1 μM nocodazole, monitored 12 hours. Here is the method: Wound healing analysis: Confluent RPE cells were synchronized by incubating with 2 mM thymidine for 18-20 hours. Two intersecting lines were drawn into the confluent cells using a pipette tip. A phase-contrast image was acquired of the intersection point (“0 h” time-point) on an Olympus IX50 inverted microscope, immediately followed by treatment with the respective inhibitor and 2 mM thymidine. Phase-contrast images of the intersection point were acquired every 2 hours for 12 hours, continuing incubation at 37° C. in 5% CO2 in-between time points. Using ImageJ, the distances between each pair of neighboring vertices of the intersection point at each time-point were measured and normalized to the “0 h” sample.
RPE-hTERT Flp-In cells, propagated in DME M:F12 media with 10% fetal bovine serum at 37° C. in a 5% CO2 humidified incubator, were grown to confluence in 6-well tissue culture plates. One day prior to performing the wound healing assay, the medium was exchanged to also include 2 mM thymidine, so that the cells would stop dividing.
A cross-shaped wound was scratched into each well, and the cells imaged by phase contrast microscopy using at 4× magnification using a Olympus IX50 Inverted microscope. Then the cell media was exchanged to include vehicle (DMSO at 0.01%), 50 nM FQI2-34, 100 nM FQI2-34, or 200 nM FQI2-34; 2 mM thymidine was maintained throughout, as well. Cells were imaged again at 2 h, 4h, 6h, and 8h, in order to measure the migration of the cells into the wound.
Each of the 4 lines across the vertices of the “X” were individually measured from each set of images using ImageJ. Relative distances of cell migration into the wound were obtained by subtracting each of the lengths for 2-8 hour timepoints from the length at the 0 hour timepoint for that line and that sample. The averages of the four changes in lengths per sample were then plotted over time for each concentration of FQI2-34, from […], using Prism software. Triplicate technical replicates were performed for each concentration.

Series [5] has as its system FH-B cells. Description: Microtubule sedimentation assay. The series is classed as cell-based, human. The protocol:
as §2, §3

Series [6] can be described thus: Plasma protein binding (PPB), mouse. The series is classed as in vitro ADME.
The nature of series [7]: Plasma protein binding (PPB), human. The series is classed as in vitro ADME.
Series [8] concerns the target T1, LSF and β-catenin (Homo sapiens, UniProt Q12800).
T1 construct: In both these cell lines, LSF co-immunoprecipitated with β-catenin; endogenous in cells; host or cells: HT-29 and HCT-116
T1 sequence (Q12800 1-502): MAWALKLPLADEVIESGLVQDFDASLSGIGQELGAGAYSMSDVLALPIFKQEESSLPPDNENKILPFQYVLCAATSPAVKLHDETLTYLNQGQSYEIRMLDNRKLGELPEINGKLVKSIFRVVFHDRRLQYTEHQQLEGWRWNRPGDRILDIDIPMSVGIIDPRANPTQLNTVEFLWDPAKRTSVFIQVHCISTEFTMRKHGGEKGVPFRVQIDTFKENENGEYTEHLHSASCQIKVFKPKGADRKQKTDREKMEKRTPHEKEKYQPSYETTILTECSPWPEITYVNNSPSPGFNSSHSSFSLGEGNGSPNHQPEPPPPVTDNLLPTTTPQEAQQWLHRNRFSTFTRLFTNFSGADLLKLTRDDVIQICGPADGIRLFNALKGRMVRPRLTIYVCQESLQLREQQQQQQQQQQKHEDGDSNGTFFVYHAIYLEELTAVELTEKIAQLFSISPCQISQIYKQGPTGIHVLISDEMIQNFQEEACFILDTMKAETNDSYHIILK
Description: Immunoprecipitation of β-catenin probed for LSF in CRC cells. The following applies: 1 μM, 16 hours, HT-29 and HCT-116 cells. The series is classed as cell-based. The source says: Immunoprecipitation: The CRC cells were harvested. Proteins of interest were immunoprecipitated using the indicated antibodies at 1:100 concentration. The eluents were resolved by SDS polyacrylamide gel electrophoresis and probed with the indicated antibodies. All the antibodies for immunoblot and immunoprecipitation were acquired from Cell Signaling and were used at the recommended concentrations.

Series [9] concerns Huh7 cells. Description: Growth inhibition curves in Huh7 cells. The series is classed as cell-based. To be noted: Homo sapiens, Huh-7.
Where [10] appears, read: 4 μM FQI1 (15- and 30-minute pellets), 1 μM nocodazole or taxol 30 minutes.
The mark [11] stands for this setting: 10 μM Y-27632 30 minutes, then 4 μM FQI1 30 minutes.

Structures are written as SMILES.

Turning to `COC(=O)Nc1nc2ccc(C(=O)c3cccs3)cc2[nH]1` [nocodazole, reference compound], the circularity result in series [1] is recorded as “significantly more circular in shape”. Further, the “decrease in cell spreading area” value in [2] is given as “decrease in cell spreading area was phenocopied”. In addition, the “microtubule stability and α-tubulin acetylation in the microtubule fraction” value in series [3] (setting [10]) was “destabilizes and deacetylates microtubules”; in series [5] (setting [10]) it was “destabilizes and deacetylates microtubules”. In series [4], the “migration of cells into the wound” value was “hindered RPE cells from migrating into the wound”.
`CCOc1cc(N(C)C)ccc1C1CC(=O)Nc2cc3c(cc21)OCO3` (stereo not shown) [FQI-34, 8-(4-(dimethylamino)-2-ethoxyphenyl)-7,8-dihydro-[1,3]dioxolo[4,5-g]quinolin-6(5H)-one]: the fraction unbound was 0.05 in series [6] and 0.07 in series [7]. In addition, the “interaction of LSF and β-catenin (co-immunoprecipitation)” value in [8] is recorded as “consistently reduced this interaction”.
For the compound `CCOc1cc(F)ccc1-c1cc(=O)[nH]c2cc3c(cc12)OCO3` [FQI2F, 8-(2-ethoxy-4-fluorophenyl)-[1,3]dioxolo[4,5-g]quinolin-6(5H)-one], the GI50 in [9] was 56.2 nM.
Consider `CCOc1cc(N(C)C)ccc1-c1cc(=O)[nH]c2cc3c(cc12)OCCO3` [FQI2-37, 9-(4-(dimethylamino)-2-ethoxyphenyl)-2,3-dihydro-[1,4]dioxino[2,3-g]quinolin-7(6H)-one], for which the fraction unbound in [6] was 0.06; in [7] it was 0.08. For the same compound, the GI50 in [9] is 14.2 nM.
Compound `CCOc1ccccc1-c1cc(=O)[nH]c2cc3c(cc12)OCO3` [FQI2] showed a GI50 in [9] of 141 nM.
The same measure, in the same setting: to `CCOc1cc(C(F)(F)F)ccc1-c1cc(=O)[nH]c2cc3c(cc12)OCO3` [FQI2F3, 8-(2-ethoxy-4-(trifluoromethyl)phenyl)-[1,3]dioxolo[4,5-g]quinolin-6(5H)-one] belongs 56.2 nM.
On to `C[C@@H](N)[C@H]1CC[C@H](C(=O)Nc2ccncc2)CC1` [Y-27632], for which the “FQI1-induced decline in stable microtubules after Y-27632 pre-exposure” value in series [3] (setting [11]) and in series [5] (setting [11]) was “quantitatively the same decline in stable microtubules as seen in control cells” each time.
In [9], `CCOc1cc(Cl)ccc1-c1cc(=O)[nH]c2cc3c(cc12)OCO3` [FQI2Cl, 8-(2-ethoxy-4-chlorophenyl)-[1,3]dioxolo[4,5-g]quinolin-6(5H)-one] displayed a GI50 of 56.2 nM. This lies in the double-digit nanomolar range.
On the same count and under the same terms, the result for `CCCOc1cc(N(C)C)ccc1-c1cc(=O)[nH]c2cc3c(cc12)OCO3` [FQI2-134, 8-(4-(dimethylamino)-2-propoxyphenyl)-[1,3]dioxolo[4,5-g]quinolin-6(5H)-one] reads 260 nM.
On to `CCOc1cc(N(C)C)ccc1C1CC(=O)Nc2cc3c(cc21)OCCO3` (stereo not shown) [FQI-37, 9-(4-(dimethylamino)-2-ethoxyphenyl)-2,3,8,9-tetrahydro-[1,4]dioxino[2,3-g]quinolin-7(6H)-one], for which the figures for the fraction unbound in series [6] and in series [7] were 0.05 and 0.07, respectively. For the same compound, in series [8], the “interaction of LSF and β-catenin (co-immunoprecipitation)” value was “consistently reduced this interaction”.
In series [9], `CC(C)COc1cc(N(C)C)ccc1-c1cc(=O)[nH]c2cc3c(cc12)OCCO3` [FQI2-237, 9-(4-(dimethylamino)-2-isobutoxyphenyl)-2,3-dihydro-[1,4]dioxino[2,3-g]quinolin-7(6H)-one] came in with a GI50 of 467 nM.
Consider `CC(C)COc1cc(N(C)C)ccc1-c1cc(=O)[nH]c2cc3c(cc12)OCO3` [FQI2-234, 8-(4-(dimethylamino)-2-isobutoxyphenyl)-[1,3]dioxolo[4,5-g]quinolin-6(5H)-one], for which, in series [9], the GI50 turned out to be 630 nM.
On to `CCCOc1cc(N(C)C)ccc1-c1cc(=O)[nH]c2cc3c(cc12)OCCO3` [FQI2-137, 9-(4-(dimethylamino)-2-propoxyphenyl)-2,3-dihydro-[1,4]dioxino[2,3-g]quinolin-7(6H)-one], for which the GI50 in series [9] worked out at 71 nM. Against the preceding compound, the GI50 is about 8.9-fold lower.
In series [9], `CCOc1cc(Br)ccc1-c1cc(=O)[nH]c2cc3c(cc12)OCO3` [FQI2Br, 8-(4-bromo-2-ethoxyphenyl)-[1,3]dioxolo[4,5-g]quinolin-6(5H)-one] showed a concentration for 50% growth inhibition (GI50) of 20.4 nM.
